This is an account of results in patent US5100670A, “Use of a bacitracin fraction as a growth promoting agent” (Protor Co., priority 1989, dated 1992).

For one data set, the system named is insulinase. As to the kind of experiment: insulinase inhibitory activity measurement (method of Duckworth et al.). The class given is biochemical. The note with it: for anti-insulinase activity: general statement in the description; for insulinase inhibitory activity: peaks from CM-Sepharose column, Example 1. The protocol: The desired fraction is believed to have a molecular weight of about 1400, approximately the same as bacitracin A or F. Their anti-insulinase and antibacterial activities can be assayed in conventional manner. For example, the insulinase inhibitory activity was measured according to the method of Duckworth, et al., Proc. Nat. Acad. Sci., 69, 3698-3702 (1972) and the anti-bacterial activity by the method of Patrick, et al., Antibiotics and Chemotherapy, 1, 133-137 (1951).
A 350 ml bed volume cf CM-Sepharose in a packed column (2.8×56 cm) was equilibrated with 0.05M ammonium acetate, pH 4.5. One gram of commercial bacitracin dissolved in 50 ml of buffer was applied to the packed column. The material was eluted with 2 liter of equilibrating buffer followed by 350 ml of 1M ammonium acetate pH 4.5 buffer. Five ml fractions were collected and absorbance measurements at 252, 280 and 290 nm were made. In addition, insulinase inhibitory activity measurements were made on each peak. […] The peaks were collected, lyophilized, weighed and dissolved in water at 5 mg/ml concentration for specific activity measurements. The material collected with the second buffer contained 5-10% of the total weight of the applied material and 90% of the total insulinase inhibitory capacity. The specific activity of this material was 10-12 times that of the starting commercial material.

For data set [1] the following is noted: by the protease insulinase; cited from earlier work.

As to bacitracin A, in the data set with insulinase, the anti-insulinase activity entry is on record as “substantially no anti-insulinase activity” and the insulinase inhibitory activity result was “negligible”.

Regarding bacitracin F, in the data set with insulinase, the anti-insulinase activity result is given as “substantially no anti-insulinase activity” and the insulinase inhibitory activity entry is given as “negligible”.

As to insulin, the “t1/2 of destruction of insulin after injection” value in data set [1] is “approximately 40 minutes”.
